Measured values taken from article PMC10923054, “Antiplasmodial peptaibols act through membrane directed mechanisms” (Cell Chemical Biology, 2024).
Square brackets hold non-standard residues; d marks the D form. Peptide text beside a SMILES is read from it. Phe(ol) = N[C@H](CO)Cc1ccccc1; Leu(ol) = CC(C)C[C@H](N)CO; dIva = CC[C@@](C)(N)C(=O)O; Aib = CC(C)(N)C(=O)O

How the values were obtained:
[1] = system: digestive vacuole of functionally isolated 3D7 trophozoites; assay: FITC-dextran measurements of DV pH and membrane integrity; on DV Alkylization: key: -: A '–' indicates a negative finding; a single '+' indicates a positive finding; a double '++' indicates a strong positive finding; type: cell-based, P. falciparum; details: for DV Alkylization: Figure 7A summary; for localization of membrane impermeable dye FITC-dextran (DV membrane leakage): microscopic analysis after 2 h
Protocol: Preloading of 3D7 parasites with FITC-dextran was done as outlined in Saliba et al.[68] In summary, 2.25 mL of pre-warmed lysis buffer (5 mM HEPES, 11 mM glucose, 2 mM MgCl2, 2 mM ATP, and 110 μM FITC-dextran, pH 7.4) was added to 1 mL of packed RBCs and incubated at 30°C for 10 min. After, 2.25 mL of resealing buffer (280 mM NaCl, 40 mM KCl, 11 mM glucose, and 1 mM HEPES, pH 7.4) was added and cells were pelleted at 1,200 x g for 5 min then washed 3 x in RPMI. FITC-dextran loaded RBCs were then resuspended with 1 mL of synchronous trophozoite stage parasites (10–20%) parasitemia, at 4% hematocrit. Cultures were maintained in 50 mL for a minimum of 2 life cycles, until parasitemia reached >15%.
For assay use, trophozoite stage parasites were functionally isolated as described by van Schalkwyk et al. and Kirk et al. with some modifications.[69]^,[70] Parasites were resuspended in warm media with 0.05% saponin then centrifuged immediately at 2,060 x g for 10 min. Cells were washed in RPMI media 3 x then resuspended in HEPES buffered saline (100 mM KCl, 30 mM NaCl, 2 mM MgCl2, and 5 mM HEPES, pH 7.3) at 5 x 10^6 cells/mL. […] Samples were collected at 0.5, 1, and 2 h for flow cytometry using a CytoFLEX S (Beckman Coulter, Brea, CA), excitation 488 nm, emissions 530 and 585 nm. Gating was performed in FlowJo Version 10 using FITC-dextran loaded and unloaded controls. The ratio (Rgy) of the fluorescent intensity values was then graphed using Graph Pad Prism Version 9. For microscopic analysis, samples were collected after 2 h of treatment and imaged on a Leica TCS SP5 II confocal microscope (Leica Microsystems, Wetzlar, DE.) at excitation 488, emission 520 nm with a 30 nm bandpass filter, then processed with LAS-X software. Significance determined using a one-way ANOVA multiple comparisons test in GraphPad Prism Version 9.0.

[2] = system: P. falciparum asexual blood stage parasites grown in 0.5% Albumax II; assay: Antiplasmodial activity with Albumax II media; type: cell-based; details: RPMI with 0.5% Albumax II; mean ± SEM from 3 biological replicates
Protocol: Asexual blood stage parasites grown in the Chakrabarti laboratory were cultured based on a protocol by Trager and Jensen[57] with some modifications.[35] […] For comparison screening using serum vs Albumax II, culture media was changed from RPMI with 0.5% Albumax II to RPMI with 10% human serum and maintained for a minimum of 2 weeks prior to assay use.
Inhibitor EC50 determination in 3D7 and Dd2 was performed as discussed in,[35] based on established protocols.[60] Assays utilized asynchronous culture at 1% parasitemia, 1% hematocrit. Culture was incubated with compound dilutions for 72 h followed by freezing at −80°C to promote lysis, then thawing and incubation for 45 min–1 h with 1× SYBR Green I in a lysis buffer (20 mM Tris-HCL, 0.08% saponin, 5 mM EDTA, and 0.8% Triton X-100). Fluorescence was read 485 nm excitation, 530 nm emission on a Synergy Neo2 multimode reader (BioTek Winsooki, VT) and EC50 curves were generated using CDD Vault (https://www.collaborativedrug.com/).

[3] = system: P. falciparum Dd2; design: method as in PMID: 33565879; details: asynchronous culture, 1% parasitemia, 1% hematocrit, 72 h, SYBR Green I; mean ± SEM, biological triplicate; ref PMID: 33565879; cited from earlier work
Text: Arrow length represents correlation strength. Arrow direction indicates positive/negative correlation. Peptaibols color-coded based on type. See also Figure S1. […] Values represent mean ± SEM. Resistance index (RI) = Dd2 EC50/3D7 EC50, Selectivity index (SI) = HepG2 EC50/Dd2 EC50.

[4] = system: PfACS_A597; assay: Cross resistance screening (1536-well SYBR Green I); type: cell-based, P. falciparum; details: 72 h, mean ± SEM of 3 biological replicates
Protocol: (§1) Parasites grown in the Winzeler laboratory for screening and drug selections were maintained in RPMI 1640 medium supplemented with 0.25% Albumax I, 26 mM sodium bicarbonate, 0.1 mM hypoxanthine, and […] gentamicin. Human O+ whole blood obtained from the Blood Bank of The Scripps Research Institute was used for cultivation (human subjects IRB number: 125933). Blood-stage cultures were kept at 37°C with 5% CO2, 3% O2, and 92% N2. Monitoring of parasitemia and parasite morphology was performed using microscopic evaluation of thin blood smears that were first fixed with methanol, and then stained with Giemsa.
(§2) Cross resistance screening was performed with 0.3% parasitemia, 2.5% hematocrit, dispensed into 1536-well black, clear bottom plates with pre-spotted compound using a MultiFloTM Microplate dispenser (BioTek) at a volume of 8 μL/well. Plates where then incubated at 37°C for 72 h, after which 10× SYBR Green I (Invitrogen) in a lysis buffer (20 mM Tris/HCl, 5 mM EDTA, 0.16% (w/v) saponin, 1.6% (v/v) […]) was then added using a MultiFloTM Microplate dispenser (BioTek) at a volume of 2 μL/well. After 24 h incubation at room temperature, viability was measured via fluorescence using the EnVision® Multilabel Reader (PerkinElmer) (485 nm excitation, 530 nm emission). IC50 values were determined in CDD vault (https://www.collaborativedrug.com/).

[5] = system: PfCARL_I1139K; assay: as above; type: cell-based, P. falciparum; details: 72 h, mean ± SEM of 3 biological replicates
Protocol: as §1, §2

[6] = system: PfPI4K_S1320L; assay: as above; type: cell-based, P. falciparum; details: 72 h, mean ± SEM of 3 biological replicates
Protocol: as §1, §2

[7] = system: PbLuc (P. berghei ANKA GFP-Luc-SMcon sporozoites in HepG2-A16-CD81 cells); type: cell-based; details: 48 h after sporozoite addition, luciferase; mean ± SEM of 3 biological replicates; read-out: PbLuc EC50 (P. berghei liver stage)
Protocol: The liver stage was performed as discussed in.[61] Liver-stage inhibitory activity was evaluated in HepG2-A16-CD81 cells and using P. berghei sporozoites (P. berghei ANKA GFP-Luc-SMcon) freshly obtained by dissecting salivary glands of infected A. stephensi mosquitoes. Cells were first seeded in 1536-well plates (Greiner Bio) containing 50 nL of test and control compounds dissolved in DMSO and incubated for 24 h. Sporozoites were then added to each well at a density of 1 × 10^3 cells per well and kept at 37°C for 48 h. Afterwards, luciferin reagent (Promega BrightGlo) was added to each well, and luciferase activity was detected using a Perkin Elmer Envision plate. As a counter screen, HepG2-A16-CD81 cells were seeded as above and exposed to drug in the absence of sporozoites. Viability was evaluated by adding Promega CellTiterGlo® followed by luminescence measurement using a Perkin Elmer Envision plate reader. IC50 values were determined using CDD vault (https://www.collaborativedrug.com/).

[8] = 5 x EC50, isolated trophozoites

SMILES	pH dependent fluorescence ratio (FI585/FI530), DV pH, 0.5, 1 or 2 h [1, 8]	DV Alkylization [1]	localization of membrane impermeable dye FITC-dextran (DV membrane leakage) ([1]; 5 x EC50)	EC50 [2]	EC50 [3]	pH dependent fluorescence ratio (FI585/FI530), DV pH, after 0.5 h [1, 8]	EC50 [4]	EC50 [5]	EC50 [6]	EC50 [7]	pH dependent fluorescence ratio (FI585/FI530), DV pH, after 1 h [1, 8]	pH dependent fluorescence ratio (FI585/FI530), DV pH, after 2 h [1, 8]
CC[C@H](C)[C@H](NC(=O)[C@H](C)NC(=O)[C@@H]1CCCN1C(=O)C(C)(C)NC(=O)[C@H](CC(C)C)NC(=O)[C@H](CCC(N)=O)NC(=O)[C@@](C)(CC)NC(C)=O)C(=O)NC(C)(C)C(=O)N1CCC[C@H]1C(=O)N[C@](C)(CC)C(=O)N[C@@H](CC(C)C)C(=O)NC(C)(C)C(=O)N1CCC[C@H]1C(=O)N[C@H](CO)CC(C)C [HZ NPDG-H, harzianin NPDG H] (Ac-[dIva]QL[Aib]PAI[Aib]P[dIva]L[Aib]P[Leu(ol)])	No significant (p > 0.05) change	-	not seen	330 ± 90 nM	330 ± 90 nM							
CC[C@@](C)(NC(=O)C(C)(C)NC(=O)[C@H](CC(C)C)NC(=O)[C@@H]1CCCN1C(=O)C(C)(C)NC(=O)[C@H](CC(C)C)NC(=O)CNC(=O)C(C)(C)NC(=O)[C@@H](NC(=O)C(C)(C)NC(=O)[C@H](CCC(N)=O)NC(=O)C(C)(C)NC(=O)C(C)(C)NC(=O)[C@H](C)NC(=O)CNC(=O)C(C)(C)NC(C)=O)C(C)C)C(=O)N[C@@H](CCC(N)=O)C(=O)N[C@H](CO)CC(C)C [TC HA-II, trichorzin HA II] (Ac-[Aib]GA[Aib][Aib]Q[Aib]V[Aib]GL[Aib]PL[Aib][dIva]Q[Leu(ol)])		++	no longer showed full colocalization of the dye within the DV									
CC(=O)NC(C)(C)C(=O)N1CCC[C@H]1C(=O)NC(C)(C)C(=O)N[C@@H](C)C(=O)NC(C)(C)C(=O)N[C@@H](C)C(=O)N[C@@H](CCC(N)=O)C(=O)NC(C)(C)C(=O)N[C@H](C(=O)NC(C)(C)C(=O)NCC(=O)N[C@@H](CC(C)C)C(=O)NC(C)(C)C(=O)N1CCC[C@H]1C(=O)N[C@H](C(=O)NC(C)(C)C(=O)NC(C)(C)C(=O)N[C@@H](CCC(=O)O)C(=O)N[C@@H](CCC(N)=O)C(=O)N[C@H](CO)Cc1ccccc1)C(C)C)C(C)C [Alamethicin, reference compound] (Ac-[Aib]P[Aib]A[Aib]AQ[Aib]V[Aib]GL[Aib]PV[Aib][Aib]EQ[Phe(ol)]; N-terminus assumed)			no longer showed full colocalization of the dye within the DV			Rapid alkalization						
CC[C@H](C)[C@H](NC(=O)[C@H](CC(C)C)NC(=O)[C@H](CCC(N)=O)NC(=O)[C@@](C)(CC)NC(C)=O)C(=O)NC(C)(C)C(=O)N1CCC[C@H]1C(=O)N[C@](C)(CC)C(=O)N[C@@H](CC(C)C)C(=O)NC(C)(C)C(=O)N1CCC[C@H]1C(=O)N[C@H](CO)CC(C)C [HZ NPDG-I, harzianin NPDG I] (Ac-[dIva]QLI[Aib]P[dIva]L[Aib]P[Leu(ol)])		+	no longer showed full colocalization of the dye within the DV	100 ± 10 nM	100 nM		23 ± 5 nM	8 ± 1 nM	13 ± 3 nM	2700 nM	moderate increase	significant (p = 0.0015) increase
